According to patent US20200029601A1, “PHENYLACRYLIC ACID SOLUTION FOR BROAD SPECTRUM ANTIMICROBIAL APPLICATIONS FOR FOODSTUFFS” (KLF LABS LLC, priority 2018, published 2020):

Assays:
[1] = test system: Saccharomyces cerevisiae, Candida parapsilosis, Zygosaccharomyces rouxii, and Zygosaccharomyces bailii; assay: Experimental Test 3, summary statements over the yeast species; assay type: cell-based; conditions: Tables 12-15; pH 3.1-7.5
Method: The media was then sterilized by steam autoclaving the solution for 15 minutes at 121° C. and the media was placed into 3 96 cell plates and pH using either 0.1N HCl or 0.1N NaOH to pH values of 3.1, 5.6, 6.0, 6.5, 7.0, and 7.5.
Three exemplary embodiment solutions were added and serial diluted into a series of treatment wells and 0.5 McFarland Standard's worth of yeast cells were added to each well. The plates were incubated at 32° C. for 48 hours and then the OD was read at 600 nm. The percent inhibition was graphed as a percentage of the following formula indicated in Equation 1.

Saccharomyces cerevisiae = assay: Yeast growth in sterile model beverage (Experimental Test 5); assay type: cell-based; conditions: 300 ppm; model beverage at 4° C.; 72 hours
Method: Application experiments were set up using a model beverage. The formulations were tested against Saccharomyces cerevisiae, a yeast well recognized for its beverage spoiling quality. A sterile model beverage was prepared using the formulation indicated in Table 19, with an initial inoculation quantity of 10^4 cells/mL of beverage. […] The OD 660 of each sample was measured 72 hours after initial inoculation using an 8543 Spectrophotometer and the data was compiled using excel, as depicted in Table 20.

| Structure (SMILES) | increase of the efficacy of potassium sorbate by addition of mandelic acid [1] | OD 660 nm (Saccharomyces cerevisiae) |
| --- | --- | --- |
| O=C(O)C(O)c1ccccc1 (centres unmarked) [mandelic acid] | 2-10 × | – |
| O=C(O)C=Cc1ccccc1 [Phenylacrylic Acid, 3-phenyl-2-propenoic acid] | – | 0.51 |
